Paper PMC5285354, “Cationic Net Charge and Counter Ion Type as Antimicrobial Activity Determinant Factors of Short Lipopeptides” (Frontiers in Microbiology, 2017)
In brackets after ≈: the same amount, converted by molar mass. Where two headings read alike, the source gives them in different places. Where a SMILES comes first, the peptide text is derived from it. The star is where a group is joined. Lauroyl = CCCCCCCCCCCC(=O)*

Tests used:
Type in all cases: cell-based
[1] = system: Pseudomonas aeruginosa (ATCC 9027); settings: ATCC 9027, 24 h
[2] = system: Enterococcus faecalis (ATCC 29212)
Summary of the method: (§1)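 Lowest lipopeptide concentration (μg/mL) with no observable growth gave the MIC, alongside MBC/MFC, by CLSI microbroth dilution. Fungi: Sabouraud dextrose broth, 10^3 cfu/mL start, 25°C for 48 h; bacteria: MH broth, 10^5 cfu/mL, 37°C for 18 h. Run in triplicate, three separate days.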

[3] = system: Escherichia coli (ATCC 25922)
Summary of the method: as §1

[4] = system: Candida albicans (ATCC 10231); settings: ATCC 10231, 48 h
Summary of the method: as §1

[5] = system: Staphylococcus aureus (ATCC 25923)
Summary of the method: as §1

[6] = system: Pseudomonas aeruginosa (ATCC 9027); settings: ATCC 9027, 18 h
Summary of the method: as §1

[7] = system: Klebsiella pneumoniae (ATCC 700603)
Summary of the method: as §1

[8] = system: Staphylococcus epidermidis (PCM 2118); settings: for MIC Staphylococcus epidermidis: PCM 2118, 18 h; for MBC Staphylococcus epidermidis: PCM 2118, 24 h
Summary of the method: as §1

[9] = system: Aspergillus brasiliensis (ATCC 16404); settings: ATCC 16404, 48 h
Summary of the method: as §1

[10] = system: Bacillus subtilis (ATCC 6633); settings: for MIC Bacillus subtillis: ATCC 6633, 18 h; for MBC Bacillus subtillis: ATCC 6633, 24 h
Summary of the method: as §1

[11] = system: Proteus vulgaris (PCM 2668); settings: for MBC Proteus vulgaris: subculture on Mueller-Hinton II Agar, 24 h 37°C
Summary of the method: as §1

[12] = system: Candida tropicalis (PCM 2681); settings: PCM 2681, 48 h
Summary of the method: as §1

[13] = system: human red blood cells; settings: 1 h
Experimental: The hemolytic activity of the lipopeptides was determined by exposing human red blood cells (4% v/v) to tested compounds at graded concentrations. Red blood cells were obtained from a healthy donor. EDTA was used to prevent the blood clotting. The plasma was removed via centrifugation and the erythrocytes were washed three times with PBS. The red blood cells were suspended in PBS and incubated with different concentrations of lipopeptides at 37°C for 1 h and centrifuged for 5 min at 1000 × g. The supernatants were transferred to a sterile 96-well plate and hemoglobin release was measured with an Epoch microplate spectrophotometer (BioTek, USA) by recording the absorbance at 550 nm. A 0.1% Triton X-100 solution was used as the positive control (100% of hemolysis) and pure PBS as the negative (0% of hemolysis). Minimum hemolytic concentration (MHC) was taken as the lowest concentration which induced 10% of hemolysis.

[14] = PCM 2668, TFA salt, Mueller-Hinton broth, 10^5 cfu/mL, 18 h 37°C, triplicate

Row | SMILES | MBC Pseudomonas aeruginosa [1] [µg/mL] | MFC Candida albicans [4] [µg/mL] | MIC Candida albicans [4] [µg/mL] | MIC Pseudomonas aeruginosa [6] [µg/mL] | MIC Staphylococcus epidermidis [8] [µg/mL] | MBC Staphylococcus epidermidis [8] [µg/mL] | MFC Aspergillus brasiliensis [9] [µg/mL] | MIC Aspergillus brasiliensis [9] [µg/mL] | MIC Bacillus subtillis [10] [µg/mL] | MBC Bacillus subtillis [10] [µg/mL] | MIC Proteus vulgaris [11, 14] [µg/mL] | MBC Proteus vulgaris ([11]; PCM 2668, TFA salt, triplicate) [µg/mL] | MFC Candida tropicalis [12] [µg/mL] | MIC Candida tropicalis [12] [µg/mL] | Hemolysis HC10 (MHC), concentration of lipopeptide inducing 10% of hemolysis [13] [µg/mL] | MIC Enterococcus fecalis ([2]; ATCC 29212, 18 h) [µg/mL] | MBC Enterococcus fecalis ([2]; ATCC 29212, 24 h) [µg/mL] | MBC Escherichia coli ([3]; ATCC 25922, 24 h) [µg/mL] | MBC Staphylococcus aureus ([5]; ATCC 25923, 24 h) [µg/mL] | MBC Klebsiella pneumoniae ([7]; ATCC 700603, 24 h) [µg/mL] | also measured
1 | CCCCCCCCCC(=O)N[C@@H](CCCCN)C(=O)N[C@@H](CCCCN)C(N)=O [C10-KK-NH2] | 2000 (≈ 4680 µM) | 2000 (≈ 4680 µM) | 2000 (≈ 4680 µM) | 2000 (≈ 4680 µM) | 256 (≈ 599 µM) | 512 (≈ 1200 µM) | 1000 (≈ 2340 µM) | 1000 (≈ 2340 µM) | 256 (≈ 599 µM) | 512 (≈ 1200 µM) | >2000 | >2000 | 1000 (≈ 2340 µM) | 1000 (≈ 2340 µM) | 4000 | – | – | – | – | – | MIC Enterococcus fecalis ([2]; ATCC 29212, TFA salt, Mueller-Hinton broth, 10^5 cfu/mL, 18 h 37°C, triplicate): >2000 µg/mL; MBC Enterococcus fecalis ([2]; ATCC 29212, TFA salt, subculture on Mueller-Hinton II Agar, 24 h 37°C, triplicate): >2000 µg/mL; MIC Escherichia coli ([3]; ATCC 25922, TFA salt, Mueller-Hinton broth, 10^5 cfu/mL, 18 h 37°C, triplicate): >2000 µg/mL; MBC Escherichia coli ([3]; ATCC 25922, TFA salt, subculture on Mueller-Hinton II Agar, 24 h 37°C, triplicate): >2000 µg/mL; MBC Staphylococcus aureus ([5]; ATCC 25923, TFA salt, MIC wells subcultured on Mueller-Hinton II Agar, 24 h 37°C, triplicate): >2000 µg/mL; MIC Staphylococcus aureus ([5]; ATCC 25923, TFA salt, Mueller-Hinton broth, 10^5 cfu/mL, 18 h 37°C, triplicate on three days): >2000 µg/mL; MIC Klebsiella pneumoniae ([7]; ATCC 700603, TFA salt, Mueller-Hinton broth, 10^5 cfu/mL, 18 h 37°C, triplicate): >2000 µg/mL; MBC Klebsiella pneumoniae ([7]; ATCC 700603, TFA salt, subculture on Mueller-Hinton II Agar, 24 h 37°C, triplicate): >2000 µg/mL
2 | CCCCCCCCCCCC(=O)N[C@@H](CCCCN)C(=O)NCC(=O)N[C@@H](CCCCN)C(=O)NCC(N)=O [C12-KGKG-NH2] (Lauroyl-KGKG-NH2) | 1000 (≈ 1760 µM) | 2000 (≈ 3510 µM) | 1000 (≈ 1760 µM) | 1000 (≈ 1760 µM) | 256 (≈ 449 µM) | 512 (≈ 899 µM) | 1000 (≈ 1760 µM) | 1000 (≈ 1760 µM) | 64 (≈ 112 µM) | 64 (≈ 112 µM) | >2000 | >2000 | 2000 (≈ 3510 µM) | 1000 (≈ 1760 µM) | 256 | 512 (≈ 899 µM) | 512 (≈ 899 µM) | 2000 (≈ 3510 µM) | 2000 (≈ 3510 µM) | 2000 (≈ 3510 µM) | MIC Escherichia coli ([3]; ATCC 25922, 18 h): 2000 µg/mL (≈ 3510 µM); MIC Staphylococcus aureus ([5]; ATCC 25923, 18 h): 2000 µg/mL (≈ 3510 µM); MIC Klebsiella pneumoniae ([7]; ATCC 700603, 18 h): 2000 µg/mL (≈ 3510 µM)
3 | CCCCCCCCCCCC(=O)N[C@@H](CCCCN)C(=O)N[C@@H](CCCCN)C(=O)N[C@@H](CCCCN)C(N)=O [C12-KKK-NH2] | – | 1000 (≈ 1710 µM) | 1000 (≈ 1710 µM) | 512 (≈ 877 µM) | 64 (≈ 110 µM) | 64 (≈ 110 µM) | 512 (≈ 877 µM) | 512 (≈ 877 µM) | 64 (≈ 110 µM) | 128 (≈ 219 µM) | >2000 | – | 1000 (≈ 1710 µM) | 1000 (≈ 1710 µM) | 512 | 512 (≈ 877 µM) | 512 (≈ 877 µM) | 1000 (≈ 1710 µM) | 1000 (≈ 1710 µM) | 1000 (≈ 1710 µM) | MIC Staphylococcus aureus ([5]; ATCC 25923, 18 h): 1000 µg/mL (≈ 1710 µM); MIC Klebsiella pneumoniae ([7]; ATCC 700603, 18 h): 1000 µg/mL (≈ 1710 µM)
4 | CCCCCCCCCCCC(=O)N[C@@H](CCCCN)C(=O)NCC(=O)N[C@@H](CCCCN)C(N)=O [C12-KGK-NH2] (Lauroyl-Lys-Gly-Lys-NH2) | 1000 (≈ 1950 µM) | 2000 (≈ 3900 µM) | 2000 (≈ 3900 µM) | 1000 (≈ 1950 µM) | 64 (≈ 125 µM) | 128 (≈ 250 µM) | 2000 (≈ 3900 µM) | 1000 (≈ 1950 µM) | 512 (≈ 999 µM) | 1000 (≈ 1950 µM) | >2000 | – | 2000 (≈ 3900 µM) | 2000 (≈ 3900 µM) | 1000 | – | – | 1000 (≈ 1950 µM) | 1000 (≈ 1950 µM) | 1000 (≈ 1950 µM) | –
5 | CCCCCCCCCCCC(=O)N[C@@H](CCCCN)C(N)=O [C12-K-NH2] | 256 (≈ 782 µM) | 512 (≈ 1560 µM) | 256 (≈ 782 µM) | 128 (≈ 391 µM) | 128 (≈ 391 µM) | 128 (≈ 391 µM) | 512 (≈ 1560 µM) | 256 (≈ 782 µM) | 128 (≈ 391 µM) | 256 (≈ 782 µM) | – | >1000 | 512 (≈ 1560 µM) | 256 (≈ 782 µM) | 1000 | 256 (≈ 782 µM) | 256 (≈ 782 µM) | 256 (≈ 782 µM) | 256 (≈ 782 µM) | 256 (≈ 782 µM) | MIC Escherichia coli ([3]; ATCC 25922, 18 h): 256 µg/mL (≈ 782 µM); MIC Staphylococcus aureus ([5]; ATCC 25923, 18 h): 256 µg/mL (≈ 782 µM); MIC Klebsiella pneumoniae ([7]; ATCC 700603, 18 h): 256 µg/mL (≈ 782 µM); MIC Proteus vulgaris ([11]; 18 h): >512 µg/mL
